# Key:
# Assay in all cases: cells
# Type in all cases: functional, cell-based, Homo sapiens
# D-336MG = details: Homo sapiens, D-336MG
# Description: SANGER: Inhibition of human D-336MG cell growth in a cell viability assay.
# DK-MG = details: Homo sapiens, DK-MG;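 note: growth inhibition of DK-MG cells, read out with a cell viability assay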
# Description: SANGER: Inhibition of human DK-MG cell growth in a cell viability assay.
# EFM-19 = details: Homo sapiens, EFM-19;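 note: growth inhibition of human EFM-19 cells, measured in a cell viability assay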
# Description: SANGER: Inhibition of human EFM-19 cell growth in a cell viability assay.
# EFO-21 = details: Homo sapiens, EFO-21;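 note: growth inhibition of EFO-21 cells measured with a viability assay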
# Description: SANGER: Inhibition of human EFO-21 cell growth in a cell viability assay.
# ESS-1 = details: Homo sapiens, ESS-1;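 note: growth inhibition of human ESS-1 cells, read out by a cell viability assay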
# Description: SANGER: Inhibition of human ESS-1 cell growth in a cell viability assay.
# GCIY = details: Homo sapiens, GCIY;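 note: growth inhibition of the human GCIY cell line, read out by a cell viability assay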
# Description: SANGER: Inhibition of human GCIY cell growth in a cell viability assay.
# HSC-4 = details: Homo sapiens, HSC-4;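 note: growth inhibition of human HSC-4 cells, read out with a cell viability assay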
# Description: SANGER: Inhibition of human HSC-4 cell growth in a cell viability assay.
# Huh-7 = details: Homo sapiens, Huh-7;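 note: HuH-7 cell growth inhibition, read out with a cell viability assay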
# Description: SANGER: Inhibition of human HuH-7 cell growth in a cell viability assay.
# HuO9 = details: Homo sapiens, HuO9;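 note: growth inhibition of HuO9 cells, read out with a cell viability assay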
# Description: SANGER: Inhibition of human HuO9 cell growth in a cell viability assay.
# J82 = details: Homo sapiens, J82;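 note: growth inhibition of J82 cells, read out with a cell viability assay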
# Description: SANGER: Inhibition of human J82 cell growth in a cell viability assay.
# KP-N-YN = details: Homo sapiens, KP-N-YN;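 note: growth inhibition of KP-N-YN cells, read out with a cell viability assay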
# Description: SANGER: Inhibition of human KP-N-YN cell growth in a cell viability assay.
# LAN-6 = details: Homo sapiens, LAN-6;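 note: growth inhibition of LAN-6 cells, determined with a cell viability assay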
# Description: SANGER: Inhibition of human LAN-6 cell growth in a cell viability assay.
# LB831-BLC = details: Homo sapiens, LB831-BLC;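 note: growth inhibition of LB831-BLC cells, read out with a cell viability assay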
# Description: SANGER: Inhibition of human LB831-BLC cell growth in a cell viability assay.
# LB996-RCC = details: Homo sapiens, LB996-RCC
# Description: SANGER: Inhibition of human LB996-RCC cell growth in a cell viability assay.
# LK-2 = details: Homo sapiens, LK-2;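 note: growth inhibition of LK-2 cells, read out with a viability assay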
# Description: SANGER: Inhibition of human LK-2 cell growth in a cell viability assay.
# LXF-289 cell line = details: Homo sapiens, LXF-289
# Description: SANGER: Inhibition of human LXF-289 cell growth in a cell viability assay.
# MEL-HO = details: Homo sapiens, MEL-HO
# Description: SANGER: Inhibition of human MEL-HO cell growth in a cell viability assay.
# MKN-1 = details: Homo sapiens, MKN-1;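 note: growth inhibition of human MKN1 cells, read out by a cell viability measurement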
# Description: SANGER: Inhibition of human MKN1 cell growth in a cell viability assay.
# MKN-45 = details: Homo sapiens, MKN-45;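 note: growth inhibition of human MKN-45 cells, measured with a cell viability assay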
# Description: SANGER: Inhibition of human MKN45 cell growth in a cell viability assay.
# MKN-7 = details: Homo sapiens, MKN-7;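 note: growth inhibition of MKN-7 cells, read out with a cell viability assay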
# Description: SANGER: Inhibition of human MKN7 cell growth in a cell viability assay.
# NB13 = details: Homo sapiens, NB13;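 note: cell viability readout measuring growth inhibition of human NB13 cells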
# Description: SANGER: Inhibition of human NB13 cell growth in a cell viability assay.
# NCI-H2029 = details: Homo sapiens, NCI-H2029;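 note: Read-out is a viability assay on the cultured cells, and IC50 is the concentration that suppresses cell growth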
# Description: SANGER: Inhibition of human NCI-H2029 cell growth in a cell viability assay.
# NCI-H23 = details: Homo sapiens, NCI-H23
# Description: SANGER: Inhibition of human NCI-H23 cell growth in a cell viability assay.
# NCI-H2347 = details: Homo sapiens, NCI-H2347;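 note: growth inhibition of the cell line, read out with a cell viability assay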
# Description: SANGER: Inhibition of human NCI-H2347 cell growth in a cell viability assay.
# NEC8 = details: Homo sapiens, NEC8;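 note: growth inhibition of human NEC8 cells, read out by a cell viability assay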
# Description: SANGER: Inhibition of human NEC8 cell growth in a cell viability assay.
# OAW-28 = details: Homo sapiens, OAW-28;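 note: growth inhibition of OAW-28 cells, read out with a cell viability assay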
# Description: SANGER: Inhibition of human OAW-28 cell growth in a cell viability assay.
# PANC-08-13 = details: Homo sapiens, PANC-08-13;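 note: cell growth inhibition, measured with a cell viability assay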
# Description: SANGER: Inhibition of human PANC-08-13 cell growth in a cell viability assay.
# SH-4 = details: Homo sapiens, SH-4;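 note: growth inhibition of SH-4 cells, read out with a cell viability assay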
# Description: SANGER: Inhibition of human SH-4 cell growth in a cell viability assay.
# SNU-C2B = details: Homo sapiens, SNU-C2B;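 note: cell viability readout used to measure compound-driven suppression of SNU-C2B cell proliferation, IC50 marking half-maximal growth inhibition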
# Description: SANGER: Inhibition of human SNU-C2B cell growth in a cell viability assay.
# SW1990 = details: Homo sapiens, SW1990;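 note: cell growth inhibition determined with a viability assay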
# Description: SANGER: Inhibition of human SW1990 cell growth in a cell viability assay.
# SW837 = details: Homo sapiens, SW837;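 note: growth inhibition of SW837 cells, determined with a cell viability assay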
# Description: SANGER: Inhibition of human SW837 cell growth in a cell viability assay.
# SAOS-2 = details: Homo sapiens, SAOS-2;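 note: growth inhibition of human Saos-2 cells determined by a cell viability assay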
# Description: SANGER: Inhibition of human Saos-2 cell growth in a cell viability assay.
# T98G = details: Homo sapiens, T98G;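 note: growth inhibition of T98G cells, read out by a cell viability assay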
# Description: SANGER: Inhibition of human T98G cell growth in a cell viability assay.
# 5637 = details: Homo sapiens
# Description: SANGER: Inhibition of human 5637 cell growth in a cell viability assay.
# 769-P = details: Homo sapiens, 769-P
# Description: SANGER: Inhibition of human 769-P cell growth in a cell viability assay.
# BB30-HNC = details: Homo sapiens, BB30-HNC;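 note: growth inhibition of the cultured cell line, read out by a cell viability assay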
# Description: SANGER: Inhibition of human BB30-HNC cell growth in a cell viability assay.
# TGBC1TKB = details: Homo sapiens, TGBC1TKB;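 note: growth inhibition of TGBC1TKB cells, read out by a cell viability assay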
# Description: SANGER: Inhibition of human TGBC1TKB cell growth in a cell viability assay.
# Kasumi 1 = details: Homo sapiens, Kasumi 1;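 note: growth inhibition of human Kasumi-1 cells, read out by a cell viability assay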
# Description: SANGER: Inhibition of human KASUMI-1 cell growth in a cell viability assay.
# NCI-H1155 = details: Homo sapiens, NCI-H1155;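 note: cell growth inhibition measured by a viability assay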
# Description: SANGER: Inhibition of human NCI-H1155 cell growth in a cell viability assay.
# SNU-5 = details: Homo sapiens, SNU-5;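 note: cell viability readout used to measure growth inhibition in human NCI-SNU-5 cells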
# Description: SANGER: Inhibition of human NCI-SNU-5 cell growth in a cell viability assay.
# CCRF-CEM = details: Homo sapiens, CCRF-CEM;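 note: inhibition of CCRF-CEM cell growth, measured by a cell viability assay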
# Description: SANGER: Inhibition of human CCRF-CEM cell growth in a cell viability assay.
# COLO-320-HSR = details: Homo sapiens, COLO-320-HSR;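 note: growth inhibition of COLO-320-HSR cells, determined with a cell viability assay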
# Description: SANGER: Inhibition of human COLO-320-HSR cell growth in a cell viability assay.
smiles,measurement,setting,value
CC(C)c1ccccc1Cc1cc(C(=O)Nc2ccc(S(=O)(=O)c3ccccc3C(C)(C)C)cc2)c(O)c(O)c1O,IC50,D-336MG,958 nM
same,IC50,DK-MG,2900 nM
same,IC50,EFM-19,1590 nM
same,IC50,EFO-21,2600 nM
same,IC50,ESS-1,141 nM
same,IC50,GCIY,20.8 nM
same,IC50,HSC-4,213 nM
same,IC50,Huh-7,32.8 nM
same,IC50,HuO9,727 nM
same,IC50,J82,1130 nM
same,IC50,KP-N-YN,15900 nM
same,IC50,LAN-6,160 nM
same,IC50,LB831-BLC,745 nM
same,IC50,LB996-RCC,250 nM
same,IC50,LK-2,1500 nM
same,IC50,LXF-289 cell line,72.8 nM
same,IC50,MEL-HO,88.2 nM
same,IC50,MKN-1,623 nM
same,IC50,MKN-45,338 nM
same,IC50,MKN-7,4470 nM
same,IC50,NB13,158 nM
same,IC50,NCI-H2029,14400 nM
same,IC50,NCI-H23,348 nM
same,IC50,NCI-H2347,1220 nM
same,IC50,NEC8,145 nM
same,IC50,OAW-28,294 nM
same,IC50,PANC-08-13,3770 nM
same,IC50,SH-4,227 nM
same,IC50,SNU-C2B,257 nM
same,IC50,SW1990,1670 nM
same,IC50,SW837,2390 nM
same,IC50,SAOS-2,613 nM
same,IC50,T98G,606 nM
same,IC50,5637,552 nM
same,IC50,769-P,137 nM
same,IC50,BB30-HNC,162 nM
same,IC50,TGBC1TKB,1130 nM
Nc1cccc2c1CN(C1CCC(=O)NC1=O)C2=O (stereo not drawn) [LENALIDOMIDE],IC50,D-336MG,> 5000 nM
same,IC50,DK-MG,> 5000 nM
same,IC50,EFM-19,> 5000 nM
same,IC50,EFO-21,> 5000 nM
same,IC50,ESS-1,> 5000 nM
same,IC50,GCIY,> 5000 nM
same,IC50,HSC-4,> 5000 nM
same,IC50,Huh-7,> 5000 nM
same,IC50,HuO9,> 5000 nM
same,IC50,J82,> 5000 nM
same,IC50,Kasumi 1,> 5000 nM
same,IC50,KP-N-YN,> 5000 nM
same,IC50,LAN-6,> 5000 nM
same,IC50,LB831-BLC,> 5000 nM
same,IC50,LK-2,> 5000 nM
same,IC50,LXF-289 cell line,> 5000 nM
same,IC50,MEL-HO,> 5000 nM
same,IC50,MKN-1,> 5000 nM
same,IC50,MKN-45,> 5000 nM
same,IC50,MKN-7,> 5000 nM
same,IC50,NB13,> 5000 nM
same,IC50,NCI-H1155,> 5000 nM
same,IC50,NCI-H2029,> 5000 nM
same,IC50,NCI-H23,> 5000 nM
same,IC50,NCI-H2347,> 5000 nM
same,IC50,SNU-5,> 5000 nM
same,IC50,NEC8,> 5000 nM
same,IC50,OAW-28,> 5000 nM
same,IC50,PANC-08-13,> 5000 nM
same,IC50,SH-4,> 5000 nM
same,IC50,SNU-C2B,> 5000 nM
same,IC50,SW1990,> 5000 nM
same,IC50,SW837,> 5000 nM
same,IC50,SAOS-2,> 5000 nM
same,IC50,T98G,> 5000 nM
same,IC50,5637,> 5000 nM
same,IC50,769-P,> 5000 nM
same,IC50,BB30-HNC,> 5000 nM
same,IC50,TGBC1TKB,> 5000 nM
same,IC50,CCRF-CEM,> 5000 nM
same,IC50,COLO-320-HSR,> 5000 nM
CCN(CC)CCCCNc1ncc2cc(-c3cc(OC)cc(OC)c3)c(NC(=O)NC(C)(C)C)nc2n1 [PD-173074],IC50,D-336MG,> 2000 nM
same,IC50,DK-MG,> 2000 nM
same,IC50,EFM-19,> 2000 nM
same,IC50,EFO-21,> 2000 nM
same,IC50,ESS-1,> 2000 nM
same,IC50,GCIY,> 2000 nM
same,IC50,Huh-7,1240 nM
same,IC50,HuO9,> 2000 nM
same,IC50,J82,> 2000 nM
same,IC50,KP-N-YN,> 2000 nM
same,IC50,LAN-6,> 2000 nM
same,IC50,LB831-BLC,> 2000 nM
same,IC50,LB996-RCC,> 2000 nM
same,IC50,LK-2,> 2000 nM
same,IC50,LXF-289 cell line,> 2000 nM
same,IC50,MEL-HO,> 2000 nM
same,IC50,MKN-1,> 2000 nM
same,IC50,MKN-45,> 2000 nM
same,IC50,MKN-7,> 2000 nM
same,IC50,NB13,> 2000 nM
same,IC50,NCI-H1155,> 2000 nM
same,IC50,NCI-H2029,> 2000 nM
same,IC50,NCI-H23,> 2000 nM
same,IC50,NCI-H2347,> 2000 nM
same,IC50,SNU-5,> 2000 nM
same,IC50,NEC8,563 nM
same,IC50,OAW-28,> 2000 nM
same,IC50,PANC-08-13,> 2000 nM
same,IC50,SH-4,> 2000 nM
same,IC50,SNU-C2B,> 2000 nM
same,IC50,SW1990,> 2000 nM
same,IC50,SW837,> 2000 nM
same,IC50,SAOS-2,> 2000 nM
same,IC50,T98G,> 2000 nM
same,IC50,5637,> 2000 nM
same,IC50,769-P,> 2000 nM
same,IC50,BB30-HNC,> 2000 nM
same,IC50,TGBC1TKB,> 2000 nM
same,IC50,CCRF-CEM,> 2000 nM
same,IC50,COLO-320-HSR,> 2000 nM
CS(=O)(=O)c1ccc(C(=O)Nc2ccc(Cl)c(-c3ccccn3)c2)c(Cl)c1 [VISMODEGIB],IC50,D-336MG,> 10000 nM
same,IC50,DK-MG,> 10000 nM
same,IC50,EFM-19,> 10000 nM
same,IC50,EFO-21,> 10000 nM
same,IC50,ESS-1,> 10000 nM
same,IC50,GCIY,> 10000 nM
same,IC50,HSC-4,> 10000 nM
same,IC50,Huh-7,> 10000 nM
same,IC50,HuO9,> 10000 nM
same,IC50,J82,> 10000 nM
same,IC50,KP-N-YN,> 10000 nM
same,IC50,LAN-6,> 10000 nM
same,IC50,LB831-BLC,> 10000 nM
same,IC50,LK-2,> 10000 nM
same,IC50,LXF-289 cell line,> 10000 nM
same,IC50,MEL-HO,> 10000 nM
same,IC50,MKN-1,> 10000 nM
same,IC50,MKN-45,> 10000 nM
same,IC50,MKN-7,> 10000 nM
same,IC50,NB13,> 10000 nM
same,IC50,NCI-H1155,> 10000 nM
same,IC50,NCI-H2029,> 10000 nM
same,IC50,NCI-H23,> 10000 nM
same,IC50,NCI-H2347,> 10000 nM
same,IC50,SNU-5,> 10000 nM
same,IC50,NEC8,> 10000 nM
same,IC50,OAW-28,> 10000 nM
same,IC50,PANC-08-13,> 10000 nM
same,IC50,SH-4,> 10000 nM
same,IC50,SNU-C2B,> 10000 nM
same,IC50,SW1990,> 10000 nM
same,IC50,SW837,> 10000 nM
same,IC50,SAOS-2,> 10000 nM
same,IC50,T98G,> 10000 nM
same,IC50,5637,> 10000 nM
same,IC50,769-P,> 10000 nM
same,IC50,BB30-HNC,> 10000 nM
same,IC50,TGBC1TKB,> 10000 nM
same,IC50,CCRF-CEM,> 10000 nM
same,IC50,COLO-320-HSR,> 10000 nM
